These results are taken from US20250222044A1, “LIMOSILACTOBACILLUS REUTERI GOLDGUT-LR99 AND APPLICATION THEREOF” (priority 2024, published 2025).

For the first test, the system named is Limosilactobacillus reuteri GOLDGUT-LR99. The experiment in a line: Carbon source utilization and oxidation experiment (AN Biolog micro-pore plate). The test is classed as cell-based. Particulars: substrate utilization by the strain, 37° C. anaerobic culture for 24 hours. As to the method: The AN Biolog micro-pore plate was used for measuring the utilization and oxidation conditions of different carbon sources of Limosilactobacillus reuteri GOLDGUT-LR99, the AN microplate used nutrients and biochemical reagents, and the method included the following steps: 1 mL of Limosilactobacillus reuteri GOLDGUT-LR99 bacterial liquid of the strain to be detected at the end of logarithmic growth was pipetted and centrifuged, then the supernatant was removed, the cells was washed three times with the seed liquid and suspended with 1 mL of the seed liquid, 50 μL of the suspension was taken and diluted in 10 mL of the seed liquid, the diluent was subpacked in a Biolog plate (100 μL/pore) after mixing uniformly, and the Biolog plate with the diluent was placed in 37° C. for anaerobic culture for 24 hours. After the culture was finished, OD590 and OD750 were detected by using microplate reader, the numerical values were recorded, and the utilization conditions of carbohydrate, organic acid and other substances of the Limosilactobacillus reuteri GOLDGUT-LR99 were calculated, wherein the calculation method was as follows: Y=OD590−OD750;
Take `OC[C@@H](O)[C@@H](O)[C@H](O)[C@H](O)CO` [D-Mannitol]: the “Utilization (Y=OD590−OD750)” value is listed as “+ (when 0.1 > Y > 0.05, it is shown that the strain was able to better utilize this substance, marked as +)”.

In the case of `OCC(O)CO` [Glycerol], the “Utilization (Y=OD590−OD750)” value was “− (when Y < 0.05, it is shown that the strain was not able to utilize this substance, marked as −)”.

Consider L-Glutamate salt, for which the “Utilization (Y=OD590−OD750)” value is listed as “− (when Y < 0.05, it is shown that the strain was not able to utilize this substance, marked as −)”.

In the case of `N#C[C@H](O[C@@H]1O[C@H](CO[C@@H]2O[C@H](CO)[C@@H](O)[C@H](O)[C@H]2O)[C@@H](O)[C@H](O)[C@H]1O)c1ccccc1` [Amygdalin], the “Utilization (Y=OD590−OD750)” value is listed as “− (when Y < 0.05, it is shown that the strain was not able to utilize this substance, marked as −)”.

In the case of `O=P(O)(O)OCC(O)CO` (racemic) [D,L-α-Glycerophosphate], the “Utilization (Y=OD590−OD750)” value was “− (when Y < 0.05, it is shown that the strain was not able to utilize this substance, marked as −)”.

With `C=C(CC(=O)O)C(=O)O` [Itaconic acid], the “Utilization (Y=OD590−OD750)” value is reported as “− (when Y < 0.05, it is shown that the strain was not able to utilize this substance, marked as −)”.

The next test shares this test system. The experiment in a line: Antibiotic sensitivity, K-B method (Kirby-Bauer method). Particulars: susceptibility of the strain to the antibiotic. Also noted: key to Antibiotic susceptibility test result: R represents resistance; S represents sensitivity. It counts as cell-based. As to the method: Antibiotic sensitivity of Limosilactobacillus reuteri GOLDGUT-LR99 was determined using the K-B method (Kirby-Bauer method).
On to `CCC(=O)O[C@@H]1CC(=O)O[C@H](C)C/C=C/C=C/[C@H](O)[C@H](C)C[C@H](CC=O)[C@H](O[C@@H]2O[C@H](C)[C@@H](O[C@H]3C[C@@](C)(O)[C@@H](OC(=O)CC)[C@H](C)O3)[C@H](N(C)C)[C@H]2O)[C@H]1OC` [Midecamycin], for which the “Antibiotic susceptibility test result” value is “R”.

As to Neomycin, the “Antibiotic susceptibility test result” value is “S”.

In the case of `CN(C)[C@@H]1C(O)=C(C(N)=O)C(=O)[C@@]2(O)C(O)=C3C(=O)c4c(O)cccc4[C@@](C)(O)[C@H]3C[C@@H]12` [Tetracycline], the “Antibiotic susceptibility test result” value is on record as “S”.

Consider Polymyxin, for which the “Antibiotic susceptibility test result” value is listed as “R”.

In the case of `CO/N=C(\C(=O)N[C@@H]1C(=O)N2C(C(=O)O)=C(CSc3nc(=O)c(=O)[nH]n3C)CS[C@H]12)c1csc(N)n1` [Ceftriaxone], the “Antibiotic susceptibility test result” value is listed as “S”.

For `CCn1cc(C(=O)O)c(=O)c2cc(F)c(N3CCNCC3)cc21` [Norfloxacin], the “Antibiotic susceptibility test result” value is on record as “R”.

Consider `Cc1nnc(SCC2=C(C(=O)O)N3C(=O)[C@@H](NC(=O)Cn4cnnn4)[C@H]3SC2)s1` [Cefazolin], for which the “Antibiotic susceptibility test result” value is recorded as “S”.

In the case of `CN(C)c1ccc(O)c2c1C[C@H]1C[C@H]3[C@H](N(C)C)C(O)=C(C(N)=O)C(=O)[C@@]3(O)C(O)=C1C2=O` [Minocycline], the “Antibiotic susceptibility test result” value is recorded as “S”.

Take `CCN1CCN(C(=O)N[C@@H](C(=O)N[C@@H]2C(=O)N3[C@@H]2SC(C)(C)[C@@H]3C(=O)O)c2ccccc2)C(=O)C1=O` [Piperacillin]: the “Antibiotic susceptibility test result” value is “S”.

On to Gentamicin, for which the “Antibiotic susceptibility test result” value is “S”.

With `CO/N=C(\C(=O)N[C@@H]1C(=O)N2C(C(=O)O)=C(COC(N)=O)CS[C@H]12)c1ccco1` [Cefuroxime], the “Antibiotic susceptibility test result” value is given as “S”.

As for `CC[C@H]1OC(=O)[C@H](C)[C@@H](O[C@H]2C[C@@](C)(OC)[C@@H](O)[C@H](C)O2)[C@H](C)[C@@H](O[C@@H]2O[C@H](C)C[C@H](N(C)C)[C@H]2O)[C@](C)(O)C[C@@H](C)C(=O)[C@H](C)[C@@H](O)[C@]1(C)O` [Erythromycin], the “Antibiotic susceptibility test result” value is “R”.

As to `CC(C)(O/N=C(\C(=O)N[C@@H]1C(=O)N2C(C(=O)[O-])=C(C[n+]3ccccc3)CS[C@H]12)c1csc(N)n1)C(=O)O` [Ceftazidime], the “Antibiotic susceptibility test result” value was “S”.

As for `O=C1OCCN1/N=C/c1ccc([N+](=O)[O-])o1` [Furazolidone], the “Antibiotic susceptibility test result” value is reported as “S”.

For `CC1(C)S[C@@H]2[C@H](NC(=O)Cc3ccccc3)C(=O)N2[C@H]1C(=O)O` [Benzylpenicillin], the “Antibiotic susceptibility test result” value was “S”.

As for `CC1=C(C(=O)O)N2C(=O)[C@@H](NC(=O)[C@H](N)C3=CCC=CC3)[C@H]2SC1` [Cefradine], the “Antibiotic susceptibility test result” value is “S”.

With `CC1=C(C(=O)O)N2C(=O)[C@@H](NC(=O)[C@H](N)c3ccccc3)[C@H]2SC1` [Cephalexin], the “Antibiotic susceptibility test result” value was “S”.

Consider `CCC[C@@H]1C[C@@H](C(=O)N[C@@H]([C@H]2O[C@H](SC)[C@H](O)[C@@H](O)[C@H]2O)[C@H](C)Cl)N(C)C1` [Clindamycin], for which the “Antibiotic susceptibility test result” value is “R”.

Consider `O=C(O)c1cn(C2CC2)c2cc(N3CCNCC3)c(F)cc2c1=O` [Ciprofloxacin], for which the “Antibiotic susceptibility test result” value is listed as “R”.

Turning to `CN[C@H](CC(C)C)C(=O)N[C@H]1C(=O)N[C@@H](CC(N)=O)C(=O)N[C@H]2C(=O)N[C@H]3C(=O)N[C@H](C(=O)N[C@H](C(=O)O)c4cc(O)cc(O)c4-c4cc3ccc4O)[C@H](O)c3ccc(c(Cl)c3)Oc3cc2cc(c3O[C@@H]2O[C@H](CO)[C@@H](O)[C@H](O)[C@H]2O[C@H]2C[C@](C)(N)[C@H](O)[C@H](C)O2)Oc2ccc(cc2Cl)[C@H]1O` [Vancomycin], the “Antibiotic susceptibility test result” value is “R”.

Consider `O=C(N[C@H](CO)[C@H](O)c1ccc([N+](=O)[O-])cc1)C(Cl)Cl` [Chloramphenicol], for which the “Antibiotic susceptibility test result” value is “S”.

`NC[C@H]1O[C@H](O[C@H]2[C@H](O)[C@@H](O[C@H]3O[C@H](CO)[C@@H](O)[C@H](N)[C@H]3O)[C@H](N)C[C@@H]2N)[C@H](O)[C@@H](O)[C@@H]1O` [Kanamycin]: the “Antibiotic susceptibility test result” value is “S”.

Take Penicillin: the “Antibiotic susceptibility test result” value is “S”.

On to `C[C@H]1c2cccc(O)c2C(=O)C2=C(O)[C@]3(O)C(=O)C(C(N)=O)=C(O)[C@@H](N(C)C)[C@@H]3[C@@H](O)[C@@H]21` [Doxycycline], for which the “Antibiotic susceptibility test result” value is on record as “S”.

For the molecule `CC1COc2c(N3CCN(C)CC3)c(F)cc3c(=O)c(C(=O)O)cn1c23` (stereo not drawn) [Ofloxacin], the “Antibiotic susceptibility test result” value was “R”.

In the case of `CCN1CCN(C(=O)N[C@@H](C(=O)N[C@@H]2C(=O)N3C(C(=O)O)=C(CSc4nnnn4C)CS[C@H]23)c2ccc(O)cc2)C(=O)C1=O` [Cefperazone], the “Antibiotic susceptibility test result” value is reported as “S”.

Turning to `Cc1cc(NS(=O)(=O)c2ccc(N)cc2)no1` [Sulfamethoxazole, Compound Sulfamethoxazole], the “Antibiotic susceptibility test result” value is listed as “R”.

As for `CC1(C)S[C@@H]2[C@H](NC(=O)C(C(=O)O)c3ccccc3)C(=O)N2[C@H]1C(=O)O` (stereo partly drawn) [Carbenicillin], the “Antibiotic susceptibility test result” value was “S”.

On to `CC1(C)S[C@@H]2[C@H](NC(=O)[C@H](N)c3ccccc3)C(=O)N2[C@H]1C(=O)O` [Ampicillin], for which the “Antibiotic susceptibility test result” value was “S” and the “antibiotic sensitivity (in words)” value is reported as “sensitive”.
